The term Kd denotes the constant that tells how readily two partners part at equilibrium. Read a low Kd as a tighter complex.

From paper PMC10525438 (2023) come the findings set out here.

The subject of assay [1] is h18-U (RNA, rRNA) CUCCGUGCCAGCAGCCGCGGUAAUACGGAG
Put plainly: CD titration at 265 nm. Conditions: 15 mM KCl, 4 mM MgCl2; 20 mM potassium cacodylate pH 7.0, 30 °C; 5 µM RNA (Methods print a different CD buffer, pH 7.6).

Assay [2] has as its system h18-Ψ (RNA, rRNA, pseudouridine at 516 (E. coli numbering; residue 6 of the 30-nt model)) CUCCGUGCCAGCAGCCGCGGUAAUACGGAG
The assay can be described thus: CD titration at 265 nm. Particulars: 15 mM KCl, 4 mM MgCl2; 20 mM potassium cacodylate pH 7.0, 30 °C; 5 µM RNA (Methods print a different CD buffer, pH 7.6).

`CN[C@@H]1[C@H](O[C@H]2[C@H](O[C@H]3[C@H](O)[C@@H](O)[C@H](N=C(N)N)[C@@H](O)[C@@H]3N=C(N)N)O[C@@H](C)[C@]2(O)C=O)O[C@@H](CO)[C@H](O)[C@H]1O`: the Kd in assay [1] is on record as 63 ± 1 µM; in assay [2], 23 ± 3 µM.
